How the values were obtained:
Experiment in all cases: combination Emax (second highest fraction inhibited in the dose matrix, 72 h); higher = more inhibition; extreme values may be limits of the assay
[1] = test system: SW756 (Cervical Carcinoma)
Summary of the method: (§1)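 Bliss excess equals the observed combination effect minus the expected value EA + EB − EA·EB, where EA and EB are the effects of each agent alone. Combination Emax is the second-highest inhibition within the matrix. Inhibition was scaled from CellTiter-Glo 2.0 luminescence, with 0 set by vehicle wells and 1 by blank wells, after 72 hours of two-drug dosing of cells plated in 1536-well plates.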

[2] = test system: CTV-1 (T-Lymphoblastic Leukemia)
Summary of the method: as §1

[3] = test system: IGR-1 (Melanoma)
Summary of the method: as §1

[4] = test system: MFH-ino (Other Solid Carcinomas)
Summary of the method: as §1

[5] = test system: KATOIII (Gastric Carcinoma)
Summary of the method: as §1

[6] = test system: NCI-H2595 (Mesothelioma)
Summary of the method: as §1

[7] = test system: U-266 (Plasma Cell Myeloma)
Summary of the method: as §1

[8] = test system: 697 (B-Lymphoblastic Leukemia)
Summary of the method: as §1

[9] = test system: SW780 (Bladder Carcinoma)
Summary of the method: as §1

[10] = test system: KARPAS-1106P (B-Cell Non-Hodgkin's Lymphoma)
Summary of the method: as §1

[11] = test system: NCI-H1694 (Small Cell Lung Carcinoma)
Summary of the method: as §1

[12] = test system: SK-N-FI (Neuroblastoma)
Summary of the method: as §1

[13] = test system: DB (B-Cell Non-Hodgkin's Lymphoma)
Summary of the method: as §1

[14] = test system: RH-1 (Ewing's Sarcoma)
Summary of the method: as §1

[15] = test system: SW1990 (Pancreatic Carcinoma)
Summary of the method: as §1

[16] = test system: DMS-273 (Small Cell Lung Carcinoma)
Summary of the method: as §1

[17] = test system: NCI-H1299 (Non-Small Cell Lung Carcinoma)
Summary of the method: as §1

[18] = test system: DSH1 (Bladder Carcinoma)
Summary of the method: as §1

[19] = test system: NCI-H1781 (Lung Adenocarcinoma)
Summary of the method: as §1

[20] = test system: OCI-AML2 (Acute Myeloid Leukemia)
Summary of the method: as §1

Row | Compound | combination Emax [1] | combination Emax [2] | combination Emax [3] | combination Emax [4] | combination Emax [5] | combination Emax [6] | combination Emax [7] | combination Emax [8] | combination Emax [9] | combination Emax [10] | combination Emax [11] | combination Emax [12] | combination Emax [13] | combination Emax [14] | combination Emax [15] | combination Emax [16] | combination Emax [17] | combination Emax [18] | combination Emax [19] | combination Emax [20]
1 | CN(C)CCCOc1ccc(-c2ccc3ncc4c(c3c2)n(C2CCOCC2)c(=O)n4C)cn1 [AZD0156] + CCN(CCO)CCCOc1ccc2c(Nc3cc(CC(=O)Nc4cccc(F)c4)[nH]n3)ncnc2c1 [AZD2811] (first compound max 1 µM, 7x7, partner max 1 µM) | 0.125 | 0.234 | 0.135 | 0.136 | 0.0129 | 0.108 | 0.299 | 1 | 0.205 | 0.244 | 0.278 | 0.114 | 0.559 | 0.956 | 0.0964 | 0.793 | 0.251 | 0.211 | 0.608 | 0.773
2 | NC1(C(=O)N[C@@H](CCO)c2ccc(Cl)cc2)CCN(c2ncnc3[nH]ccc23)CC1 [Capivasertib] + CC(C)n1c(=O)n(C)c2cnc3cc(F)c(-c4ccc(OCCCN5CCCCC5)nc4)cc3c21 [AZD1390] (first compound max 10 µM, 7x7, partner max 0.3 µM) | 0.31 | 0.547 | 0.334 | 0.28 | 0.345 | 0.279 | 0.139 | 0.59 | 0.176 | 0.392 | 0.223 | 0.361 | 0.386 | 0.333 | 0.143 | 0.71 | 0.254 | 0.615 | 0.485 | 0.586
3 | Cc1c2c(nn1C)CSCc1cc(n(C)n1)CSc1cc(c3ccccc3c1)OCCCc1c(C(=O)O)n(C)c3c-2c(Cl)ccc13 [AZD5991] + Cn1cnc2c(F)c(Nc3ccc(Br)cc3Cl)c(C(=O)NOCCO)cc21 [Selumetinib] (first compound max 1 µM, 7x7, partner max 3 µM) | 0.336 | 0.187 | 0.622 | 0.358 | 0.178 | 0.283 | 0.985 | 1 | 0.333 | 0.979 | 0.986 | 0.565 | 1 | 0.52 | 0.41 | 0.987 | 0.3 | 0.489 | 0.492 | 1
4 | Cc1cc2ncnn2cc1Nc1ncc2c(n1)n(C1CCOCC1)c(=O)n2C [AZD7648] + CCN(CCO)CCCOc1ccc2c(Nc3cc(CC(=O)Nc4cccc(F)c4)[nH]n3)ncnc2c1 [AZD2811] (first compound max 10 µM, 7x7, partner max 1 µM) | 0.108 | 0.375 | 0.0874 | 0.415 | 0.263 | 0.203 | 0.331 | 1 | 0.29 | 0.526 | 0.273 | 0.274 | 0.601 | 0.952 | 0.201 | 0.82 | 0.37 | 0.362 | 0.671 | 0.702
5 | CCN(CCO)CCCOc1ccc2c(Nc3cc(CC(=O)Nc4cccc(F)c4)[nH]n3)ncnc2c1 [AZD2811] + O=C(c1cc(Cc2n[nH]c(=O)c3ccccc23)ccc1F)N1CCN(C(=O)C2CC2)CC1 [Olaparib] (first compound max 1 µM, 7x7, partner max 10 µM) | 0.0979 | 0.375 | 0.168 | 0.338 | 0.12 | 0.226 | 0.279 | 1 | 0.242 | 0.535 | 0.276 | 0.171 | 0.604 | 0.947 | 0.168 | 0.735 | 0.303 | 0.328 | 0.67 | 0.873
6 | Cc1cc2ncnn2cc1Nc1ncc2c(n1)n(C1CCOCC1)c(=O)n2C [AZD7648] + C[C@@H]1COCCN1C2=NC(=NC(=C2)C3(CC3)[S@](=N)(=O)C)C4=C5C=CNC5=NC=C4 [AZD6738] (first compound max 10 µM, 7x7, partner max 10 µM) | 0.401 | 0.864 | 0.348 | 0.499 | 0.407 | 0.208 | 0.508 | 1 | 0.303 | 0.756 | 0.659 | 0.71 | 0.54 | 0.894 | 0.471 | 0.788 | 0.644 | 0.736 | 0.443 | 0.986
